Experimental data from ChEMBL document CHEMBL2331446, “Discovery of a potential anti-inflammatory agent: 3-oxo-29-noroleana-1,9(11),12-trien-2,20-dicarbonitrile” (J Med Chem, 2013).
Active and inactive are the calls of the source. The rule behind the calls is not given here.

Key:
[1] = target: T1, NF-kappa-B inhibitor alpha (Mus musculus) (UniProt Q9Z1E3); experiment: Inhibition of IkappaBalpha degradation in mouse LPS-induced RAW264.7 cells assessed as increase in cytosolic IkappaB level at 0.1 to 0.4 uM incubated for 2 hrs prior to LPS-challenge measured after 30 mins by Western blot analysis; assay type: cell-based
T1 sequence (whole entry): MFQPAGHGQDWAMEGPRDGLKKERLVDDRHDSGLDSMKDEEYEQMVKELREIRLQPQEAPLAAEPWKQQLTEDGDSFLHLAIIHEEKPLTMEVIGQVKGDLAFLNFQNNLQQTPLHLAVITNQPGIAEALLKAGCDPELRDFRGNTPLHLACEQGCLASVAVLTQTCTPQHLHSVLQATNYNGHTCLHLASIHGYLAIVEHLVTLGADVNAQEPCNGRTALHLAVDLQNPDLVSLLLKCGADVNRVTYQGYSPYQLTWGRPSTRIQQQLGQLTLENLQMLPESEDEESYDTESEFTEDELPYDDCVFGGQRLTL

RAW264.7 [2] = experiment: Effect on JNK level in mouse LPS-induced RAW264.7 cells at 0.1 to 0.4 uM incubated for 2 hrs prior to LPS-challenge measured after 30 mins by Western blot analysis; assay type: functional, cell-based
RAW264.7 [3] = experiment: Antiinflammatory activity in mouse RAW264.7 cells assessed as inhibition of LPS-induced iNOS mRNA expression at 0.1 to 0.4 uM incubated for 2 hrs prior to LPS-challenge measured after 8 hrs by qPCR analysis; assay type: functional, cell-based
RAW264.7 [4] = experiment: Effect on MAPK p38 level in mouse LPS-induced RAW264.7 cells at 0.1 to 0.4 uM incubated for 2 hrs prior to LPS-challenge measured after 30 mins by Western blot analysis; assay type: functional, cell-based
[5] = target: T1, NF-kappa-B inhibitor alpha (Mus musculus); experiment: Inhibition of IkappaB phosphorylation in mouse LPS-induced RAW264.7 cells at 0.1 to 0.4 uM incubated for 2 hrs prior to LPS-challenge measured after 30 mins by Western blot analysis; assay type: cell-based
RAW264.7 [6] = experiment: Antiinflammatory activity in mouse RAW264.7 cells assessed as inhibition of LPS-induced NO production at 50 uM incubated for 2 hrs prior to LPS-challenge measured after 24 hrs by Griess method; assay type: functional
RAW264.7 [7] = experiment: Cytotoxicity against mouse LPS-challenged RAW264.7 cells at 80 uM after 24 hrs by MTT assay; assay type: cell-based; settings: raw264.7, 24 h
[8] = target: MAP kinase p38 (Mus musculus) (UniProt P47811+O08911+Q9WUI1+Q9Z1B7); experiment: Inhibition of MAPK p38 in mouse LPS-induced RAW264.7 cells at 0.1 to 0.4 uM incubated for 2 hrs prior to LPS-challenge measured after 30 mins by Western blot analysis; assay type: cell-based
Mus musculus [9] = experiment: Antiinflammatory activity in ICR mouse assessed as reversal in LPS-induced weight loss at 12.5 to 200 mg/kg, ip administered for 5 days prior to LPS-challenge measured from day 9 to 11 relative to control; assay type: functional, organism-based
RAW264.7 [10] = experiment: Cytotoxicity against mouse RAW264.7 cells at 80 uM after 24 hrs by MTT assay; assay type: cell-based; settings: raw264.7, 24 h
RAW264.7 [11] = experiment: Effect on ERK level in mouse LPS-induced RAW264.7 cells at 0.1 to 0.4 uM incubated for 2 hrs prior to LPS-challenge measured after 30 mins by Western blot analysis; assay type: functional, cell-based
RAW264.7 [12] = experiment: Ratio of glycyrrhetinic acid to compound activity in mouse RAW264.7 cells; assay type: functional
Mus musculus [13] = experiment: Antiinflammatory activity in ICR mouse assessed as reversal in LPS-induced weight loss at 12.5 to 200 mg/kg, ip administered for 5 days prior to LPS-challenge measured up to day 8 relative to control; assay type: functional, organism-based
RAW264.7 [14] = experiment: Antiinflammatory activity in mouse RAW264.7 cells assessed as inhibition of LPS-stimulated IL-1beta mRNA expression at 0.1 to 0.4 uM incubated for 2 hrs prior to LPS-challenge measured after 8 hrs by quantitative real time PCR analysis; assay type: functional, cell-based
RAW264.7 [15] = experiment: Antiinflammatory activity in mouse RAW264.7 cells assessed as inhibition of LPS-induced NO production incubated for 2 hrs prior to LPS-challenge measured after 24 hrs by Griess method; assay type: functional, cell-based
RAW264.7 [16] = experiment: Antiinflammatory activity in mouse RAW264.7 cells assessed as inhibition of LPS-stimulated IL-6 mRNA expression incubated for 2 hrs prior to LPS-challenge measured after 8 hrs by quantitative real time PCR analysis relative to control; assay type: functional, cell-based
Mus musculus [17] = experiment: Antiinflammatory activity in ICR mouse assessed as protection against LPS-induced sepsis at 12.5 to 200 mg/kg, ip administered for 5 days prior to LPS-challenge measured after 2 hrs post last dose; assay type: functional, organism-based
RAW264.7 [18] = experiment: Inhibition of JNK phosphorylation in mouse LPS-induced RAW264.7 cells at 0.1 to 0.4 uM incubated for 2 hrs prior to LPS-challenge measured after 30 mins by Western blot analysis; assay type: cell-based
RAW264.7 [19] = experiment: Antiinflammatory activity in mouse RAW264.7 cells assessed as inhibition of LPS-stimulated IL-6 mRNA expression at 0.1 to 0.4 uM incubated for 2 hrs prior to LPS-challenge measured after 8 hrs by quantitative real time PCR analysis; assay type: functional, cell-based
Mus musculus [20] = experiment: Antiinflammatory activity in ICR mouse assessed as protection against LPS-induced sepsis at 50 mg/kg, ip administered for 5 days prior to LPS-challenge measured after 2 hrs; assay type: functional, organism-based; set-up: dose 50 mg/kg
[21] = target: T1, NF-kappa-B inhibitor alpha (Mus musculus); experiment: Inhibition of IkappaBalpha in mouse RAW264.7 cells assessed as inhibition of LPS-stimulated NF-kappaB p65 subunit translocation to nucleus at 0.1 to 0.4 uM incubated for 2 hrs prior to LPS-challenge measured after 30 mins by Western blot analysis; assay type: cell-based
RAW264.7 [22] = experiment: Inhibition of ERK phosphorylation in mouse LPS-induced RAW264.7 cells at 0.1 to 0.4 uM incubated for 2 hrs prior to LPS-challenge measured after 30 mins by Western blot analysis; assay type: cell-based
RAW264.7 [23] = experiment: Antiinflammatory activity in mouse RAW264.7 cells assessed as inhibition of LPS-induced iNOS protein expression incubated for 2 hrs prior to LPS-challenge measured after 24 hrs by Western blot analysis; assay type: functional, cell-based
RAW264.7 [24] = experiment: Antiinflammatory activity in mouse RAW264.7 cells assessed as inhibition of NO production after 24 hrs in presence of mifepristone; assay type: functional, cell-based
RAW264.7 [25] = experiment: Antiinflammatory activity in mouse RAW264.7 cells assessed as inhibition of LPS-stimulated TNF-alpha mRNA expression at 0.2 to 0.4 uM incubated for 2 hrs prior to LPS-challenge measured after 8 hrs by quantitative real time PCR analysis; assay type: functional, cell-based

- inhibition [1]: Active
- inhibition [5]: Active
- inhibition [8]: Active
- IC50 (RAW264.7 [15]): 200 nM
- inhibition [21]: Active
SMILES: CC1(C)C(=O)C(C#N)=C[C@]2(C)C3=CC=C4[C@@H]5C[C@@](C)(C#N)CC[C@]5(C)CC[C@@]4(C)[C@]3(C)CC[C@@H]12
- Activity (RAW264.7 [2]): inactive
- inhibition (RAW264.7 [3]): Active
- Activity (RAW264.7 [4]): inactive
- inhibition at 50 µM (RAW264.7 [6]): 99.1%
- Activity (RAW264.7 [7]): Non-toxic
- Activity (Mus musculus [9]): Active
- Activity (RAW264.7 [10]): Non-toxic
- Activity (RAW264.7 [11]): inactive
- Ratio (RAW264.7 [12]): 1000
- Activity (Mus musculus [13]): inactive
- inhibition (RAW264.7 [14]): Dose-dependent effect
- inhibition (RAW264.7 [16]): inactive
- Activity (Mus musculus [17]): inactive
- inhibition (RAW264.7 [18]): Active
- inhibition (RAW264.7 [19]): Dose-dependent effect
- Activity (Mus musculus [20]): Active
- inhibition (RAW264.7 [22]): Active
- inhibition (RAW264.7 [23]): Dose-dependent effect
- inhibition (RAW264.7 [24]): Active
- inhibition (RAW264.7 [25]): Active
